Measured values taken from a melting point compilation (Tetko et al.; mined from patent text by program, amines drawn as free bases though some values may be those of a salt).

| SMILES | melting point |
| --- | --- |
| CCOC(=O)c1ccc(NCc2ccc(Cl)s2)cc1 | 108 to 109 °C |
| CNc1ccc(-c2nc3ccc(F)cc3s2)cc1 | 154 °C |
| CN(C)C(=O)N1Cc2c(-c3noc(C4CC4)n3)ncn2-c2ccc(Cl)cc21 | 254 to 256 °C |
| Cc1c(NC(=O)NCCCO)c(C)c2c(c1-c1ccccc1)OCC2c1ccc(C(C)C)cc1 (stereo unspecified) | 145 to 146 °C |
| Cc1cc(C(=O)N2CC(O)C2)ncc1C(c1cc(F)ccc1F)S(=O)(=O)c1ccc(F)cc1 (stereo unspecified) | 219 to 221 °C |
| CNC(=O)Nc1ccc(Oc2ccc3c(c2)CCC(C)(OC)O3)cc1 (stereo unspecified) | 140 °C |
| CCN1c2ncccc2C(=O)Nc2c(C)cc(NCCO)nc21 | 241 to 244 °C |
| CCN1CCC2(c3cccc(OC)c3)Cc3[nH]c(C(N)=O)c(C)c3CC2C1 (stereo unspecified) | 176 to 178 °C |
| CCC(CC)C(=O)Nc1nc(C)co1 | 106 °C |
| Nc1nnc(-c2ccccc2Cl)c(-c2ccccc2Cl)n1 | 240 to 242 °C |
| Cc1onc2c(=O)[nH]nc(-c3ccc(O)cc3)c12 | 268 to 276 °C |
| CCCCCCCCCCCCCCCC1CCCC(c2ccc(N)cc2)(c2ccc(N)cc2)C1 (stereo unspecified) | 107 °C |
| O=C(CBr)c1cc2c(Cl)cccc2s1 | 116 to 118 °C |
| CCCc1c(OCCCCCc2c(Cl)ccc(OC)c2OC)ccc(C(=O)OC)c1O | 53 to 55 °C |
| CC1CC2=C(N3CN(C)N=C3C(c3ccccc3Cl)=NC2)S1=O (stereo unspecified) | 199 to 200 °C |
| CCCCCCCCc1sc(NC(=O)c2cc3cc(C)cc(C)c3n2Cc2cccc(C(=O)O)c2)nc1-c1cc(OC)c(Cl)cc1OC | 195 to 197 °C |
| Nn1c(C(F)(F)F)cc(-c2ccc(C(F)(F)F)cc2)cc1=S | 156 °C |
| N#CC(C(N)=S)c1ccc(Cl)c(Cl)c1 (stereo unspecified) | 143 °C |
| CC(C)NC(=O)CCCCCCI | 46 to 51 °C |
| ON=C(c1ccncc1)c1ccc(F)cc1F | 155 to 200 °C |
| O=C(Nc1cccc2c(Cn3ccnc3)ccnc12)c1c(Cl)cccc1Cl | > 250 °C |

| SMILES | melting point |
| --- | --- |
| CSC1=NC=CC(NN)(SC)N1 (stereo unspecified) | 120 to 125 °C |
| CC(=O)C(=NNc1ccc(Cl)cc1)Sc1ccc(Cl)cc1 | 164 to 167 °C |
| COc1cccc2oc(C(=O)C34CC5CC(CC(C5)C3)C4)cc12 | 96 to 98 °C |
| COc1ccc(NC2=NN(c3ccccc3)CC2)cc1 | 153 to 154 °C |
| CCCC=Cc1c(C)nc(C(C)C)c(CO)c1-c1ccc(F)cc1 | 106 to 108 °C |
| CCC(NS(=O)(=O)c1ccc(Cl)c(Cl)c1)c1cnc(Oc2ccc(F)cc2)n1CC (stereo unspecified) | 138 °C |
| CCc1cc(C(C)=O)c(O)cc1OCc1cccc(C(=O)O)c1 | 161 to 164 °C |
| O=C1CCC2(c3ccc(-c4ccc(OC(F)(F)F)cc4)cc3)OCC(c3ccccc3)N12 (stereo unspecified) | 104 °C |
| CCCCCCCCN1CCN(O)C1=O | 53.5 to 55.5 °C |
| Nc1ccc(Oc2cccc3ccccc23)nc1 | 82.2 to 83.7 °C |
| Cc1ccc(-c2c3n(c(=O)c4ncccc24)CCN(Cc2cc(C(F)(F)F)cc(C(F)(F)F)c2)C3=O)cc1 | 270 to 271 °C |
| Cc1cc(COc2ccc(C(=O)NC[C@@H](C(=O)NO)N3CCN(S(C)(=O)=O)CC3)cc2)c2ccccc2n1 | 175 °C |
| O=C1CC(Cl)C(=O)N1c1ccccc1 (stereo unspecified) | 117 to 118 °C |
| CC1(C)COC(c2ccc(S)cc2)OC1 | 134 to 136 °C |
| COC(=O)C(Cc1cc(C(C)(C)C)c(O)c(C)c1C)C(=O)OC | 140 to 143 °C |
| Cn1cc(C=O)c2ccc3oc4ccccc4c3c21 | 163 to 165 °C |
| COc1c(F)c(F)c(N)c2c(=O)c(C(=O)O)cn(C3CC3)c12 | 291 to 292 °C |
| O=c1[nH]c2ccc([C@H]3CC[C@H](NCCCc4ccccc4)CC3)cc2o1 | 166 to 170 °C |
| O=C1NCC(Cc2cccc(Cl)c2)O1 (stereo unspecified) | 113 to 114 °C |
| CCc1c(C(F)(F)F)noc1NS(=O)(=O)c1cccc2ccccc12 | 135 to 137 °C |
| COc1cc2[nH]c(N(C)Cc3cccc(C4=NCCN4C)c3)nc(=O)c2c(C)c1OC | 145 to 148 °C |

| SMILES | melting point |
| --- | --- |
| CCOC(=O)c1cn(Cc2ccccc2OC)c2sc(-c3ccc(NC(C)=O)cc3)c(CN(C)Cc3ccccc3)c2c1=O | 161 to 163 °C |
| CCOC(=O)Nc1ccc(OC)c(OC)c1 | 75 to 78 °C |
| Nc1ncc(-c2ccncc2)cn1 | 180 to 182 °C |
| O=C(O)CC12CC3CC(CC(Cl)(C3)C1)C2 | 182 to 184 °C |
| CCOc1cc2c(cc1OC)Nc1[nH]cnc(=O)c1C2 | 335 to 336 °C |
| [N-]=[N+]=C1CCc2ccccc2C1=O | 50 to 52 °C |
| CCCN(CCC)CCc1ccc(OC)c2[nH]c(=O)[nH]c12 | 35 °C |
| Cc1cc(C)c(CP(Cc2c(C)cc(C)cc2C)Cc2c(C)cc(C)cc2C)c(C)c1 | 148 to 158 °C |
| O=C(Cn1c(-c2cccs2)ncc(NC(=O)OCc2ccccc2)c1=O)NC(Cc1ccccc1)C(=O)C(F)(F)F (stereo unspecified) | 108 to 111 °C |
| COc1ccc(Cl)cc1NC(=O)[C@H]1[C@H](c2ccc(Br)cc2)C1(C)C (relative stereo) | 170 to 172 °C |
| CCCCCCCN(Cc1ccc(C(C)(C)C)cc1)C(Nc1c(C)cc(C)cc1C)=C1C(=O)COC1=O | 141 to 143 °C |
| C=CC(=O)OCCCCCCCCCCCCOc1ccc(-c2cccc(F)c2F)cc1 | 59.7 to 60.7 °C |
| COc1cc2c(c3c1OC(C)(C)C3)C(c1cccc(-c3ccc(NC=O)cc3)c1)=NC(C)(C)C2 | 129 to 133 °C |
| Oc1ccc(Cl)cc1C(O)(C1CCCCC1)C1CCCCC1 | 230 °C |
| O=C(NCCCO)c1ccc[nH]1 | 71 to 73 °C |
| O=C(C(Cl)Cl)N1CCCCCCC1 | 83 °C |
| O=C1CCC(O)(c2ccc3c(c2)OCO3)CC1 | 162 to 164 °C |
| O=C(c1cc(=O)c2cc(O)ccc2[nH]1)N1CCC(COc2ccccc2)CC1 | 130 °C |
| Cn1cc(C2=C(c3cn(CCCNC(N)=NC#N)c4ccccc34)C(=O)NC2=O)c2ccccc21 | 168 to 170 °C |

Next, values leading:

| melting point | SMILES |
| --- | --- |
| 174 to 176 °C | CC1(C)CC(c2ccc[nH]c2=O)c2cc(C#N)ccc2O1 (stereo unspecified) |
| 226 to 228 °C | NC(=O)c1ccc(C(=O)N2Cc3cccn3Cc3ccccc32)cc1 |
| 180 °C | CC(C)(O)c1onc(-c2ccccc2Cl)c1C(=O)c1nnn(Cc2cc(F)cc(C(F)(F)F)c2)c1-c1cccnc1 |
| 118 to 120 °C | Fc1ccc2nc(-c3ccccc3)cc(OCC3CO3)c2c1 (racemic) |
| 83 to 86 °C | CC(C)(C)OC(=O)N1CCN(c2nsnc2Cl)CC1 |
| 120 to 122 °C | O=C(O)C(OCc1ccc(-c2ccc(Cl)cc2)cc1)c1ccc(Cl)cc1 (stereo unspecified) |
| 196 to 197 °C | COCCc1nc2c(N)nc3cc(OCc4cccc(C#N)c4)ccc3c2n1CC(C)(C)O |
| 188 to 190 °C | Fc1cc(F)c2c(c1)C[C@@H](n1c(CCNCc3ccccc3)c[nH]c1=S)CO2 |
| 136 °C | COc1cc(-c2ccc(NCc3ccccc3)nn2)ccc1OC(F)F |
| 197 to 198 °C | Nc1nc2[nH]c(CCCCC#Cc3ccc(C(=O)N[C@@H](CCC(=O)O)C(=O)O)s3)cc2c(=O)[nH]1 |
| 150 °C | CCCCc1nc(SCC)c2ccccc2c1Cc1ccc(C(=O)O)cc1 |
| 185 °C | C=C(C)OC(=O)N1c2ccc(C)cc2NC(=O)C1(C)C |
| 95 to 96 °C | COc1cc(C(=O)c2ccc(C(F)(F)F)cc2)cc(N)c1OC |
| 40 °C | O=[PH](O)Cc1ccc(P(c2ccccc2)c2ccccc2)cc1 |
| 185 to 186 °C | Cc1cc(-c2cc(C(=O)O)c(=O)n(Cc3ccccc3Cl)n2)ccc1F |
| 162 to 164 °C | CC(c1ccc(F)cc1)n1ncc(-c2ccc(S(C)(=O)=O)cc2)c(-c2ccc(F)cc2)c1=O (stereo unspecified) |
| 91 to 93 °C | COCC(c1cc(C)ccc1C)S(=O)(=O)c1ccccn1 (stereo unspecified) |
| 92.5 to 94 °C | CCN(CC)CCOc1ccc(Oc2ccc(S(C)(=O)=O)cc2)cc1 |
| 280 to 282 °C | Cc1c(C(=O)O)sc2c(Br)csc12 |
| 232 to 234 °C | N#Cc1cncc(-c2ccc3c(c2)C2(CCCCC2)C(=O)N3)c1 |

| melting point | SMILES |
| --- | --- |
| 93.5 to 94.5 °C | CCCCNC(=O)CCC(=O)O |
| 259 to 261 °C | Nc1ncnc2c1ncn2C1CC(O)C2CC21 (stereo unspecified) |
| 147 to 150 °C | CC(C)Oc1cc(OC(C)C)c(C(=O)O)c(C(F)(F)F)n1 |
| 128 to 131 °C | COC(=O)c1cccc2c1ccn2Cc1ccc(OCc2ccc3ccccc3n2)cc1 |
| 235 to 236 °C | COc1cc2c(cc1-c1cnccn1)-c1c(-c3cncs3)c3c(n1CC2)C(=O)N(C(C)(C)C)CCCOC3 |
| 155 to 157 °C | CCc1c2c(c(CC)c3ccc(OC)cc13)-c1ccc(OC)cc1C2 |
| 191 °C | [N-]=[N+]=C1C(=O)Oc2cc(OCc3ccccc3)ccc2C1=O |
| 254 to 256 °C | CCOC(=O)c1cn(CCCl)c2cc(-n3cccc3)c(F)cc2c1=O |
| 164 to 165 °C | CCCCn1c(C(=O)c2cc(C)cc(C=CC#N)c2)c(C(C)C)c(=O)[nH]c1=O |
| 234 to 236 °C | CCn1c(=O)c2c(nc(/C=C/c3ccc(OC(=O)c4ccccc4)c(OC)c3)n2C)n(CC)c1=O |
| 63 to 68 °C | O=C(N1CCC(c2nc(-c3c(Cl)cccc3Cl)no2)CC1)N1CCCc2ccccc21 |
| 147 to 148 °C | CC(OP(=O)(c1ccccc1)c1ccccc1)c1ccccc1C(C)OP(=O)(c1ccccc1)c1ccccc1 (stereo unspecified) |
| 224 to 226 °C | CCCn1c(=O)c2[nH]c(C3CCCS3)nc2n(CCC)c1=O (stereo unspecified) |
| 106 to 108 °C | CC(=O)SC(CC(=O)c1ccccc1C)C(=O)O (stereo unspecified) |
| 82.5 to 84 °C | CC(C)N(CCNC(=O)N1CCCC(S(=O)(=O)c2ccccc2)C1)C(C)C (stereo unspecified) |
| 182 to 184 °C | CC(C)Nc1cccnc1N1CCN(C(=O)c2ccc(C(=O)NCCO)cc2)CC1 |
| 232 °C | NC(=O)c1c(Cl)c(-c2ccccc2)n2c1CN(C(=O)c1ccc(-c3ccccn3)s1)CC2 |
| 220 to 222 °C | O=C(NCCCCCCNC(=O)c1ccc(O)cc1)c1ccc(O)cc1 |
| 103 °C | COc1ccc(C(=O)c2ccccc2)cc1COc1ccc(Cl)cc1 |
| 102 °C | COc1ncccc1-c1ccc(OC2SCC(O)C(O)C2O)c(Cl)n1 (stereo unspecified) |
